Earlier results in publication PMC5810560 (Chemico-biological interactions, 2017).

Conditions: rats, brain homogenates, 50 μmol IM exposure; ref Petroianu et al., 2007; cited from earlier work

SMILES: C[n+]1ccccc1/C=N/O [2-PAM, pralidoxime chloride]
- brain/plasma ratio: 0.056
